Measurements as given in patent US20070026478A1, “Hemiasterlin affinity probes and their uses” (WYETH, priority 2002, published 2007).

Legend:
[1] = target: T1, tubulin in KB-3-1 cell lysates (Homo sapiens, UniProt P07437+P68363); assay: Probe 1 photolabeling in KB-3-1 cell lysates; assay type: binding; conditions: 250 μM non-radiolabeled, 2.5 μM [3H]-probe 1, KB-3-1 cell lysates (50 μg)
T1 construct: a cytosolic preparation of KB-3-1 cell lysates (50 μg) or KB-3-1 cells (40,000 cells) were used in the place of purified tubulin; endogenous in cells; host or cells: KB-3-1 cells (cytosolic supernatant at 100,000 x g, or whole cells)
Description: FIG. 1B illustrates the labeling of KB-3-1 cell lysates (50 μg) (lanes 1 and 2) and purified bovine brain (BB) tubulin (5 μg) (lanes 3 and 4) incubated for 30 minutes at room temperature with 2.5 μM [^3H]-probe 1. Samples in lanes 1 and 3 were pre-incubated with 250 μM non-radiolabeled probe 1 prior to incubation with radiolabeled materials. Samples were analyzed as described in FIG. 1A. Lanes marked “M” are molecular weight markers in kDa.
Alternatively, a cytosolic preparation of KB-3-1 cell lysates (50 μg) or KB-3-1 cells (40,000 cells) were used in the place of purified tubulin above. The supernatant of mechanically disrupted cells centrifuged at 100,000×g was used as a cytosolic preparation. K-3-1 cells were prepared by growing KB-3-1 cells in a 96-well plate and rinsing them with serum free medium. For experiments with whole cells, 250 μM HTI-286 was used as the competitor molecule during pre-incubation at 37° C. for 15 minutes.

bovine brain tubulin [2] = target: T2, bovine brain tubulin (Bos taurus, UniProt P81947+Q6B856); assay: Radiolabeled Probe 1 binding by centrifugal gel filtration; conditions: 0.5 μM tubulin, 0.005-5 μM radiolabeled Probe 1, room temperature; read-out: apparent KD, radiolabeled probe technique
T2 construct: MAP-rich bovine brain tubulin (99% purity), Hela cell tubulin (90% purity); purchased Cytoskeleton (Denver, Colo.); host or cells: bovine brain
Description: Binding of Probe 1 to bovine brain tubulin was also assessed by incubating 0.5 μM tubulin with 0.005-5 μM radiolabeled Probe 1 both in the presence and in the absence of 5 μM non-radiolabeled probe 1 as a competitor. Incubations were performed for 30 minutes at room temperature in PEM buffer. Binding was measured using centrifugal gel filtration on Sephadex G-50 (Microspin G-50) as described (Bai et al., Cancer Res. 1996, 56:4398-4406). Spin columns (Amersham Biosciences, Piscataway, N.J.) were centrifugated for 1 minute at 2000 rpm in a microcentrifuge immediately prior to use, and samples applied in 50 μL total volume, followed by a 2 minute centrifugation at the same speed. The amount of probe 1 bound to tubulin was quantitated by measuring the radioactivity within aliquots collected after centrifugation. The KD value, representing 50% of specific binding, was calculated from the curve generated by subtracting the amount of […].

bovine MAP-rich tubulin = target: T3, bovine MAP-rich tubulin (Bos taurus, UniProt P81947+Q6B856); assay: Tubulin polymerization assay in a cell-free system; assay type: biochemical; conditions: 0.3 μM compound
T3 construct: MAP-rich bovine brain tubulin (99% purity), Hela cell tubulin (90% purity); purchased Cytoskeleton (Denver, Colo.); host or cells: bovine brain
Description: In vitro tubulin polymerization assays were performed according to procedures that have been described elsewhere (Loganzo et al., Cancer Res. 2003, 63:1838-1845). Briefly, bovine MAP-rich tubulin (final concentration 1.5 mg/mL) was dissolved in cold PEM buffer containing 1 mM GTP (GPEM) and centrifuged at 12,000×g for 10 minutes at 4° C. The tubulin solution (100 μL/well) was added rapidly to wells of a low-volume, 96-well plate already containing duplicate aliquots (10 μL) of test compounds in GPEM. Final compound concentrations were 0.3 μM. Control wells contained the same final concentration of DMSO (0.3%). After initiation of the reaction, absorbance at 340 nm was measured every minute for 60 minutes at 24° C. using a SpectraMax Plus plate reader (Molecular Devices, Sunnyvale, Calif.). An increase in absorbance over time indicated an increase in turbidity resulting from tubulin polymerization.

α-tubulin = target: T4, α-tubulin (Bos taurus, UniProt P81947); assay: Subtilisin digestion of tubulin before or after labeling with Probe 1; assay type: biochemical, bovine
T4 construct: MAP-rich bovine brain tubulin (99% purity), Hela cell tubulin (90% purity); purchased Cytoskeleton (Denver, Colo.); host or cells: bovine brain
Description: FIGS. 6A-6C provide data for the digestion of tubulin by subtilisin before or after photoaffinity labeling with Probe 1. FIG. 6A diagrams the predicted subtilisin cleavage site and cleavage products for α-tubulin. FIG. 6B provides Coomassie staining (top) and fluorographic (bottom) images of fragments photolabeled with Probe 1 and exposed to subtilisin as follows: Tubulin (5 μg) was incubed without (Lanes 1 and 4) or with 0.2 μg subtilisin for 60 minutes at 30° C. and then photolabeled with 0.25 μM [^3H]-Probe 1 (Lane 2) according to conditions specified in Section 6.1.11. Alternatively, photolabeling was done before subtilisin digestions (Lane 3). In both cases samples were then separated by SDS-PAGE. […] Again, samples were separated by SDS-PAGE.
Before or after incubating with 0.25 μM (0.36 μCi) [^3H]-Probe 1 for 30 minutes at room temperature and irradiating as described in Section 7.1.5, tubulin (5 μg) was digested under native conditions with subtilisin (0.2 μg) for 60 minutes at 30° C. Enzymatic digestions were stopped with 1 mM PMSF. After both digestion and labeling, samples were resolved by SDS-PAGE under conditions that allowed separation of α- and β-tubulin subunits. Gels were then fixed and stained with Coomassie blue from BioRad (Hercules, Calif.) and subjected to fluorography.

bovine brain tubulin [3] = target: T2, bovine brain tubulin; assay: Reversible binding affinity assay (tubulin fluorescence)
Description: The affinity of both HTI-286 and of non-radiolabled Probe 1 and Probe 2, to bovine brain tubulin was determined by previously published methods (Krishnamurthy et al., Biochem., submitted). Briefly, 5 mg/mL […] tubulin prepared in PEM buffer was pre-incubated with buffer or varying concentrations of test agents in individual quartz cuvettes. The intrinsic tryptophan fluorescence of tubulin (excitation at 560 nm and maximal emission at 580 nm) was measured after pre-incubation for 90 minutes. The change in fluorescence intensity at 580 nm in the presence of compound was fitted to a quadratic equation to obtain apparent dissociation constants (KD) of the test agents.

T2 sequence (P81947 whole entry): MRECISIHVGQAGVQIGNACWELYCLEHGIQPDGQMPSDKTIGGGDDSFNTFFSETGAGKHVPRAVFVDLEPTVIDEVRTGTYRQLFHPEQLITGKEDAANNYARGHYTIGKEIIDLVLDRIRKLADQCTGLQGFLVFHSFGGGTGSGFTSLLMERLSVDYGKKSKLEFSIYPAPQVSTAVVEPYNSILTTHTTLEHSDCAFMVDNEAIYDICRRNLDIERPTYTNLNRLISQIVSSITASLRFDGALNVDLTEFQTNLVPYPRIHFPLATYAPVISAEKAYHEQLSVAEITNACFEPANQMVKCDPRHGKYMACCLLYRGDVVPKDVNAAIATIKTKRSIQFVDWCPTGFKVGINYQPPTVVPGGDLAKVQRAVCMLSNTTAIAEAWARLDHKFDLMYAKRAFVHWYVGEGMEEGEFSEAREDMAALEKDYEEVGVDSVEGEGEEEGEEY
T2 sequence (Q6B856 whole entry): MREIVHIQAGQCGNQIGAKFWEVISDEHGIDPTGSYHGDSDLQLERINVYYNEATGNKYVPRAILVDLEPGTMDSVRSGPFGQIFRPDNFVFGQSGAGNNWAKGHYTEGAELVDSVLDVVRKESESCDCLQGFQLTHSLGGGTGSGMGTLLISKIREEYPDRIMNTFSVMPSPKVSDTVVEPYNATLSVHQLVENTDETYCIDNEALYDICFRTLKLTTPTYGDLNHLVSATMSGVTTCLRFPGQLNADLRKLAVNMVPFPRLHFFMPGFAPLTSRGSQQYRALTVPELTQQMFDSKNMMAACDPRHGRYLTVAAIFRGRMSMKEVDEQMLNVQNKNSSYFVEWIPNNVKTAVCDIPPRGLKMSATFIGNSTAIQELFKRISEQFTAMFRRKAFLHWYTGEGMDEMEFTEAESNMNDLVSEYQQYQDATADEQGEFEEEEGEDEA
T4 sequence (P81947 whole entry): as the sequence (P81947 whole entry) above
T4 sequence (Q6B856 whole entry partner): as the sequence (Q6B856 whole entry) above
T1 sequence (P68363 whole entry): as the sequence (P81947 whole entry) above
T1 sequence (P07437 whole entry): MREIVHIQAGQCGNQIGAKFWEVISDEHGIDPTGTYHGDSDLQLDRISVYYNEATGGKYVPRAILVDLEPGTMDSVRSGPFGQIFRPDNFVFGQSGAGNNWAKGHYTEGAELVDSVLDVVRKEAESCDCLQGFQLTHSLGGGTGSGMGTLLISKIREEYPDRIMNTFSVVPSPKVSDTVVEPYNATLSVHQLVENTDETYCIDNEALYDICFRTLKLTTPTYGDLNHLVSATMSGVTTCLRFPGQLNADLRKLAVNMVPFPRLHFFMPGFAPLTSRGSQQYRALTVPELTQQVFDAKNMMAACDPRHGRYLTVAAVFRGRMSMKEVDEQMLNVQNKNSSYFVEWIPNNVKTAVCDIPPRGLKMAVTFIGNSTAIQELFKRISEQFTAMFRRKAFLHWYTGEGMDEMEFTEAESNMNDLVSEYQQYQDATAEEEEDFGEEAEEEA
T3 sequence (P81947 whole entry): as the sequence (P81947 whole entry) above
T3 sequence (Q6B856 whole entry): as the sequence (Q6B856 whole entry) above

CN[C@H](C(=O)N[C@H](C(=O)N(C)[C@H](/C=C(\C)C(=O)O)C(C)C)C(C)(C)C)C(C)(C)c1ccc(C(=O)c2ccccc2)cc1 [Probe 1, 4-benzoyl-N,β,β-trimethyl-L-phenylalanyl-N^1-[(1S,2E)-3-carboxy-1-isopropylbut-2-enyl]-N^1,3-dimethyl-L-valinamide]
inhibition of radiolabeled Probe 1 binding in cell lysates [1]: can inhibit the binding of radiolabled Probe 1
Kd (bovine brain tubulin [2]): 350 nM
inhibition at 0.3 µM (bovine MAP-rich tubulin): 88%
effect on subtilisin digestion of α-tubulin (α-tubulin; 0.25 μM radiolabeled): partially inhibits the digestion of α-tubulin
effect on subtilisin digestion of α-tubulin (α-tubulin; 100 or 250 μM non-radiolabeled, β-tubulin is completely digested): completely blocks
Kd (bovine brain tubulin [3]; Table 1, binding to bovine brain tubulin, read-out: KD): 200 to 800 nM
Kd (bovine brain tubulin [3]; rhodamine-labeled tubulin, 90 minutes pre-incubation, read-out: apparent binding constant (KD), fluorescence method): 500 nM
